{
  "source": "patent US11690387B2",
  "about": "“Methods and related compositions for manufacturing food and feed” (priority 2017, dated 2023)",
  "key": {"[1]": {"test_system": "Drosophila melanogaster", "experiment": "Development rate assay: time to adult emergence on diet seeded with Corynebacterium glutamicum (Example 8)", "assay_type": "in vivo", "settings": "diet seeded with 10^9 CFUs of bacteria vs axenic/sterile diet; adults counted every 12 hours", "method": "The media used to rear flies is cornmeal, molasses and yeast medium (11 g/l yeast, 54 g/l yellow cornmeal, 5 g/l agar, 66 ml/l molasses, and 4.8 ml/l propionic acid). All the components of the diet except propionic acid are heated together to 80° C. in deionized water with constant mixing for 30 minutes and let to cool to 60° C. Propionic acid is then mixed in and 50 ml of the diet is aliquoted into individual bottles and allowed to cool down and solidify. The flies are raised at 26° C., 16:8 hour light:dark cycle, at around 60% humidity.\nOn day one, 100 ul of a Corynebacterium glutamicum suspension in nutrient broth consisting of 10^9 colony forming units (CFUs) were added to five replicates of fly food. As controls, nutrient broth without the bacteria was added to five more bottles of fly food. Fertilized embryos collected from fruit flies were treated with 2% hypochlorite solution for five minutes and then washed with sterile water to remove any extracellular microbes from the embryos. 10 ul of the embryo suspension in water (one:three embryo:water suspension) was added to all the bacteria seeded and control fly food bottles. […] The time to adult emergence and the rate of emergence was measured in every replicate. From the time the first adult emerges from the pupa, the number of adult flies emerging was counted every 12 hours and rate of emergence was be computed."}, "[2]": {"test_system": "fungi", "settings": "cited from earlier work"}, "[3]": {"test_system": "Drosophila melanogaster", "experiment": "Larval mass assay: larval area on defined diet, axenic or mono-associated with one bacterium (Example 8)", "assay_type": "in vivo", "settings": "after 13 days, 10-15 larvae per replicate, FIG. 3", "from_the_text": "For the experimental setup to measure the larval growth rate, defined diet was used (Piper et al., 2014, Nature Methods). Defined diet eliminates the effects of batch to batch variation in the ingredients used for the cornmeal based diet. In addition, the defined diet allows for the exclusion of individual components to test their effects on fly development.\nTo test whether the presence of bacteria producing amino acids can increase the body mass of developing larvae when raised on defined diet, we produced larvae that are axenic, and mono-associated with a single strain of bacterium. For these assays, three different bacteria were used, Corynebacterium glutamicum—a strain that produces glutamate, Corynebacterium glutamicum—a strain that produces methionine, and E. coli.\nFirst, axenic embryos were generated. Fertilized embryos were collected from fruit flies over a 6 hour period on grape juice agar plates with yeast. To eliminate any bacterial contamination, the embryos were treated with 2% hypochlorite solution for five minutes and then washed thrice with sterile water. One volume of embryos was then suspended in 3 volumes of water.\nThe defined diet was aliquoted into vials and nine replicates were used for every condition being tested. […]\nAfter 13 days, 10-15 randomly chosen larvae from each replicate were sampled, and their areas were measured, as a proxy to their biomass and weight. […]"}, "[4]": {"test_system": "target bacterial strains", "settings": "against its target bacterial strains; cited from earlier work"}},
  "data": [
    {"substance": "Corynebacterium glutamicum [C. glutamicum Glu]", "values": [
      {"measurement": "time to reach adulthood from embryos", "setting": "[1]", "value": "reach adulthood faster than their bacteria free counterparts"}
    ]},
    {"substance": "alirin B1", "values": [
      {"measurement": "antifungal activities", "setting": "[2]", "value": "have been shown to have antifungal activities"}
    ]},
    {"substance": "Corynebacterium glutamicum [C. glu-Met]", "values": [
      {"measurement": "larval body size (area of the larvae, proxy to biomass and weight)", "setting": "[3]", "value": "largest body size on average"}
    ]},
    {"substance": "botrycidin AJ1316", "values": [
      {"measurement": "antifungal activities", "setting": "[2]", "value": "have been shown to have antifungal activities"}
    ]},
    {"substance": "nisin", "values": [
      {"measurement": "concentration showing antimicrobial activity", "setting": "[4]", "value": "single-digit nanomolar concentration"}
    ]}
  ]
}
